In US11479539B2, “Small molecule modulators of the BTB domain of Keap1” (MedImmune Limited, priority 2017, dated 2022):

What follows are compounds tested against Keap1 (Homo sapiens (Human), UniProt Q14145) (assay: HEK293 ARE luciferase assay). Settings: HEK-293 ARE firefly luciferase transiently transfected cells; 18 h incubation; mean of 1 to 20 individual measurements.
Sequence of Keap1 (Q14145 whole entry): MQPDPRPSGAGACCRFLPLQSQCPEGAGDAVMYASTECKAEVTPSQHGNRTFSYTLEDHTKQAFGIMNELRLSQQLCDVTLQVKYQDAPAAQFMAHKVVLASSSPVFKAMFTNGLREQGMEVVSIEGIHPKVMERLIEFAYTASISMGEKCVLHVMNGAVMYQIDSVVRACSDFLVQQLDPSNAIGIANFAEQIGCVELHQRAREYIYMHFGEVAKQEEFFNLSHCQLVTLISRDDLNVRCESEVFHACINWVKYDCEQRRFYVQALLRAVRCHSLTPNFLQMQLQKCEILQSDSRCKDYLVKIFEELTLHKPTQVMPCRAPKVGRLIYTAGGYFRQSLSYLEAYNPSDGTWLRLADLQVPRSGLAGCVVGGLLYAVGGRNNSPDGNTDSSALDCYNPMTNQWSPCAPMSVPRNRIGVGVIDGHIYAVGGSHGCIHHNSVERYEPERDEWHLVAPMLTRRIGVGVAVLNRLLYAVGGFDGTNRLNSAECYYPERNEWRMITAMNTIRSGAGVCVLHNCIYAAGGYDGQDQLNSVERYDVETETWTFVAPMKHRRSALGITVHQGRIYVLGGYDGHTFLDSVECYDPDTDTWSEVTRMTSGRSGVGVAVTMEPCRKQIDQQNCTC
Type: cell-based
Procedure, shortened: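 Transiently transfected HEK-293 ARE firefly luciferase cells (10,000/well, DMEM with 10% FCS) exposed to compound, 10-point curve from 100 μM top, 0.3% DMSO, 18 h at 37 °C. SteadyGlo luminescence; activity normalised to 30 μM tBHQ (stimulator) and DMSO (neutral), activity threshold 50; means of 1-20 measurements.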
With `COC1(c2ncc(F)cc2-c2cncc(C#N)c2)C=C(C#N)C(=O)C(C)(C)C1` (stereo not shown) [Compound 184, 2′-(3-cyano-1-methoxy-5,5-dimethyl-4-oxocyclohex-2-en-1-yl)-5′-fluoro[3,3′-bypyridine]-5-carbonitrile] the EC50 was 121 nM. With `COC1(c2ncc(F)cc2-c2cncc(Cl)c2)C=C(C#N)C(=O)C(C)(C)C1` (stereo not shown) [Compound 185, 3-(5′-chloro-5-fluoro[3,3′-bypyridin]-2-yl)-3-methoxy-5,5-dimethyl-6-oxocyclohex-1-ene-1-carbonitrile] the EC50 was 8 nM. With `COC1(c2ncc(F)cc2-c2cncc(C(F)(F)F)c2)C=C(C#N)C(=O)C(C)(C)C1` (stereo not shown) [Compound 186, 3-[5-fluoro-5′-(trifluoromethyl)[3,3′-bypyridin]-2-yl]-3-methoxy-5,5-dimethyl-6-oxocyclohex-1-ene-1-carbonitrile] the EC50 was 75 nM. For `COC1(c2ncc(F)cc2-c2c(C)nn(C)c2C)C=C(C#N)C(=O)C(C)(C)C1` (stereo not shown) [Compound 187, 3-[5-fluoro-3-(1,3,5-trimethyl-1H-pyrazol-4-yl)pyridin-2-yl]-3-methoxy-5,5-dimethyl-6-oxocyclohex-1-ene-1-carbonitrile], the EC50 was 77 nM. `COC1(c2ncc(F)cc2-c2ccn3ncnc3c2)C=C(C#N)C(=O)C(C)(C)C1` (stereo not shown) [Compound 188, 3-[5-fluoro-3-([1,2,4]triazolo[1,5-a]pyridin-7-yl)pyridin-2-yl]-3-methoxy-5,5-dimethyl-6-oxocyclohex-1-ene-1-carbonitrile] was tested, and the EC50 was 23 nM. `COC1(c2ncc(F)cc2-c2c(C)nn(C)c2C)C=C(C#N)C(=O)C(C)(C)C1` (stereo not shown) [Compound 189, 3-[5-fluoro-3-(1,3,5-trimethyl-1H-pyrazol-4-yl)pyridin-2-yl]-3-methoxy-5,5-dimethyl-6-oxocyclohex-1-ene-1-carbonitrile] was tested, and the EC50 was 1530 nM. For `COC1(c2ncc(F)cc2-c2ccn3ncnc3c2)C=C(C#N)C(=O)C(C)(C)C1` (stereo not shown) [Compound 190, 3-[5-fluoro-3-([1,2,4]triazolo[1,5-a]pyridin-7-yl)pyridin-2-yl]-3-methoxy-5,5-dimethyl-6-oxocyclohex-1-ene-1-carbonitrile], the EC50 was 1680 nM. Compound `COC1(c2ncc(F)cc2-c2sc(C)nc2C)C=C(C#N)C(=O)C(C)(C)C1` (stereo not shown) [Compound 191, 3-[3-(2,4-dimethyl-1,3-thiazol-5-yl)-5-fluoropyridin-2-yl]-3-methoxy-5,5-dimethyl-6-oxocyclohex-1-ene-1-carbonitrile] has an EC50 of 12 nM. Compound `COC1(c2ncc(F)cc2-c2cc[nH]c(=O)c2)C=C(C#N)C(=O)C(C)(C)C1` (stereo not shown) [Compound 192, 3-(5-fluoro-2′-oxo[1′,2′-dihydro[3,4′-bipyridine]]-2-yl)-3-methoxy-5,5-dimethyl-6-oxocyclohex-1-ene-1-carbonitrile] has an EC50 greater than 10000 nM. Work on `COC1(c2ncc(F)cc2-c2cccc(=O)[nH]2)C=C(C#N)C(=O)C(C)(C)C1` (stereo not shown) [Compound 193, 3-(5′-fluoro-6-oxo[1,6-dihydro[2,3′-bipyridine]]-2′-yl)-3-methoxy-5,5-dimethyl-6-oxocyclohex-1-ene-1-carbonitrile] yielded an EC50 greater than 10000 nM. With `COC1(c2nc(C)c(-c3ccccn3)s2)C=C(C#N)C(=O)C2(CC2)C1` (stereo not shown) [Compound 194, 7-methoxy-7-[4-methyl-5-(pyridin-2-yl)-1,3-thiazol-2-yl]-4-oxospiro[2.5]oct-5-ene-5-carbonitrile] the EC50 was 203 nM. In the case of `COC1(c2ncc(F)cc2-c2sc(C)nc2C)C=C(C#N)C(=O)C(C)(C)C1` (stereo not shown) [Compound 195, 3-[3-(2,4-dimethyl-1,3-thiazol-5-yl)-5-fluoropyridin-2-yl]-3-methoxy-5,5-dimethyl-6-oxocyclohex-1-ene-1-carbonitrile], the EC50 is reported as 1300 nM. `COC1(c2ncc(F)cc2C(F)F)C=C(C#N)C(=O)C2(CC2)C1` (stereo not shown) [Compound 196, 7-[3-(difluoromethyl)-5-fluoropyridin-2-yl]-7-methoxy-4-oxospiro[2.5]oct-5-ene-5-carbonitrile] gave an EC50 of 46 nM. `CO[C@]1(c2ncc(Cl)cn2)C=C(C#N)C(=O)C(C)(C)C1` [Compound 214, (3S)-3-(5-chloropyrimidin-2-yl)-3-methoxy-5,5-dimethyl-6-oxocyclohex-1-ene-1-carbonitrile] showed an EC50 of 20 nM. `COC1(c2ccc(C)cn2)C=C(C#N)C(=O)C(C)(C)C1` (stereo not shown) [Compound 239, 3-methoxy-5,5-dimethyl-3-(5-methylpyridin-2-yl)-6-oxocyclohex-1-ene-1-carbonitrile] showed an EC50 of 50 nM. `COC1(c2ccc(F)cn2)C=C(C#N)C(=O)C2(CCCC2)C1` (stereo not shown) [Compound 240, 9-(5-fluropyridin-2-yl)-9-methoxy-6-oxospiro[4.5]dec-7-ene-7-carbonitrile] showed an EC50 of 838 nM.
